Results reported in patent US9814731B2, “Method for the induction of phase 2 related genes in a mammal comprising administering exemestane” (THE JOHNS HOPKINS UNIVERSITY, priority 2013, dated 2017).

Key:
NQO1 [1] = assay: NQO1 assay in murine hepatoma Hepa1c1c7 cells; type: cell-based; details: for CD value (concentration required to double the specific activity of NQO1): 48 hours exposure; for inducer activity for NQO1: concentrations up to 20 μM
Method: (§1) Cells (10,000 per well) were grown in 96-well plates for 24 hours, then exposed to serial dilutions of inducers for 48 hours, and lysed in 0.08% digitonin. Enzymatic activity of NQ01 in cell lysates was determined with menadione as a substrate (Anal Biochem 169: 328-336 (1988), Methods Enzymol 382(B): 243-258 (2004)). The concentrations required to double the specific activity of NQO1 (CD values) were used to quantify inducer potency.

NQO1 [2] = assay: NQO1 assay in murine 308 keratinocytes; type: cell-based; details: 308 cells, 48 hours exposure
Method: as §1

NQO1 [3] = assay: NQO1 assay in human retinal pigment epithelial ARPE-19 cells; type: cell-based; details: 48 hours exposure
Method: as §1

NQO1 [4] = assay: NQO1 assay in rat H9c2 myocardiocytes; type: cell-based; details: H9c2 cells, 48 hours exposure
Method: as §1

[5] = test system: Hepa1c1c7, ARPE-19, 308 and H9c2 cells; assay: Cytotoxicity in all cell lines of the NQO1 assay (Hepa1c1c7, ARPE-19, 308, H9c2); type: cell-based; details: up to 20 μM, the highest concentration tested
heme oxygenase-1 (HO-1) = assay: Real-time PCR of HO-1 mRNA in H9c2 cells; type: cell-based, rat; details: 10 μM, 6 hours
Method: (§2) Total mRNA from cells was extracted with TRIzol reagent (Invitrogen, Carlsbad, Calif.). […] was synthesized by the iScript cDNA Synthesis Kit (Bio-Rad Laboratories, Inc., Hercules, Calif.). Quantitative real-time PCR analysis was performed using the 7000 Sequence Detection System (Applied Biosystems, Foster City, Calif.). All primers were optimized and a final primer concentration of 300 nM was used for all reactions. Primer sequences for gene amplification were as follows: NAD(P)H: quinone oxidoreductase 1 (NQO1): fwd 5′-[…]-3′ (SEQ ID NO: 1), rev 5′-[…]-3′ (SEQ ID NO: 2); heme oxygenase-1 (HO-1): fwd 5′-[…]-3′ (SEQ ID NO: 3), rev 5′-[…]-3′ (SEQ ID NO: 4). (3-actin (endogenous control): fwd 5′-[…]-3′ (SEQ ID NO: 5), rev 5′-catcllllcacggttggcctta-3′ (SEQ ID NO: 6). The reactions were assembled using 5 ng of cDNA, 1× Power SYBR Green PCR Master Mix (Life Technologies), forward and reverse primers, and nuclease-free water. Relative mRNA expression was normalized to β-actin. Gene expression was calculated using the comparative 2^−ΔΔCT method.

NQO1 [6] = assay: Real-time PCR of NQO1 mRNA in H9c2 cells; type: cell-based, rat; details: 10 μM, 6 hours
Method: as §2

NQO1 [7] = assay: NQO1 induction in mouse skin by topical application; type: in vivo, SKH-1 hairless mice; details: three applications at 24-hour intervals
Method: Eleven-month-old female SKH-1 hairless mice (n=5) purchased from Charles River Laboratories were treated three times at 24-hour intervals on the backs with 0, 1 and 2 μmol of exemestane dissolved in 80% aqueous acetone (40 μL) over about a 2.0 cm^2 area. Mice were euthanized 24 hours after the final dose. Each treated segment of the dorsal skin was harvested, pulverized in liquid N2, and homogenized in 10 volumes of 0.25 M sucrose in 10 mM Tris buffer (pH 7.4). After three freeze-thaw cycles, the homogenates were centrifuged at 14,000 rpm and 4° C. for 30 minutes, and the supernatant fractions were analyzed for protein concentration and NQO1 activity. All animal experiments were in compliance with National Institutes of Health Guidelines and were approved by The Johns Hopkins University Animal Care and Use Committee.

ARPE-19 cells [8] = assay: Intracellular ROS in ARPE-19 cells challenged with tert-butyl hydroperoxide; type: cell-based, human; details: ARPE-19, 24 hours pretreatment, 500 μM tert-butyl hydroperoxide
Method: (§3) ARPE-19 or MEF cells (10,000 per well) in 96-well plates (black-walled wells with clear bottom) were treated with serial dilutions of exemestane for 24 hours, and then incubated with 20 μM H2DCFDA for 30 minutes (Chem Res Toxicol 5: 227-231(1992)). After washing with Dulbecco's phosphate-buffered saline (DPBS) twice, the cells were challenged with 500 μM tert-butyl hydroperoxide for 30 minutes, and fluorescence intensity was measured in SpectraMax GeminiEM plate reader (Molecular Devices) with excitation at 485 nm and emission at 530 nm. Murine 308 keratinocytes (40,000 per well) were plated in 24-well plates and grown for 24 hours. Medium was then replaced with medium containing different concentrations of exemestane (0, 2, 4, 8 μM). After further incubation for 24 hours, cells were incubated with 20 μM H2DCFDA for 30 minutes, washed twice with DPBS twice and exposed to 5 or 10 J/cm^2 UVA (340-400 nm). Immediately after UVA irradiation, fluorescence intensity was measured by a microplate reader.

ARPE-19 cells [9] = assay: Cytotoxicity of oxidative stresses in ARPE-19 cells (MTT); type: cell-based, human; details: ARPE-19, 24 hours pretreatment 0-20 μM
Method: (§4) ARPE-19 cells (10,000 cells/well) in 96-well plates were treated with serial dilutions of exemestane for 24 hours, and exposed to tert-butyl hydroperoxide or 4-hydroxynonenal in serum-free medium for 4 hours. The cells were then incubated in serum-free medium for additional 20 hours, washed with DPBS, and cell viability was determined using the colorimetric procedure based on the reduction of a water-soluble tetrazolium salt, 3-(4,5-dimethylthiazo-2-yl)-2,5-diphenyltetrazolium bromide (MTT). H9c2 cells (10,000 cells/well) in 96-well plates were treated with a range of concentrations of exemestane. After 24 hours, the cells were washed with DPBS, and exposed to 2 mM Na2S2O4 in serum-free medium for 1 hour. The cells were then washed with DPBS and incubated in complete medium containing 10% FBS for 24 hours, and then cell viability was measured by the MTT assay.

308 keratinocytes = assay: UVA-stimulated ROS production in murine 308 keratinocytes; type: cell-based; details: 24 hours pretreatment, 5 or 10 J/cm^2 UVA
Method: as §3

H9c2 cells = assay: Hypoxia/reoxygenation injury in H9c2 cardiomyocytes (MTT); type: cell-based, rat; details: H9c2, 24 hours pretreatment, 10 μM
Method: as §4

NQO1 [10] = assay: NQO1 assay in wild-type MEF; type: cell-based, mouse; details: 48 hours
Method: as §1

NQO1 [11] = assay: NQO1 assay in Nrf2-knockout MEF; type: cell-based, mouse; details: 48 hours
Method: as §1

WT MEF cells = assay: ROS in wild-type MEF challenged with tert-butyl hydroperoxide; type: cell-based, mouse; details: 24 hours pretreatment
Method: as §3

Nrf2-/- MEF cells = assay: ROS in Nrf2-/- MEF challenged with tert-butyl hydroperoxide; type: cell-based, mouse; details: 24 hours pretreatment
Method: as §3

iNOS [12] = assay: LPS-activated iNOS (NO production, Griess reaction) in RAW264.7 cells; type: cell-based, murine; details: for IC50: Mus musculus, RAW264.7, 10 ng/ml LPS, 48 h, read-out: IC50 of NO generation; for inhibition of LPS-stimulated NO production: RAW264.7, up to 20 μM
Method: RAW264.7 cells (20,000 per well) in 96-well plates, were grown for 24 hours, and exposed to serial dilutions of exemestane in the presence of 10 ng/ml LPS. […] The nitrite values of cells treated with LPS but without test compounds were used as controls.

RAW264.7 cells = assay: Cytotoxicity in RAW264.7 cells; type: cell-based, murine; details: RAW264.7, 20 μM
iNOS [13] = assay: LPS-activated iNOS (NO production) in wild-type mouse peritoneal macrophages; type: cell-based; details: Peritoneal macrophage, single agent, 100 ng/ml LPS, 24 hours, read-out: concentration required for 50% inhibition of LPS-stimulated nitric oxide generation
Method: (§5) Nrf2−/− mice on C57BL/6 background were initially established by Itoh et al. WT C57BL/6 mice were purchased from The Jackson Laboratory. Macrophages were harvested by lavage from the peritoneal cavity with DPBS 4 days after an i.p. injection of thioglycolate broth (Brewer, 4%). Isolated cells were plated into 96-well plates at a density of 10^5 cells per well in RPMI 1640 medium containing 2 mM Lglutamine, 10% heat-inactivated FBS, 100 U/ml […]. After 3 hours of incubation at 37° C. in 5% CO2. nonmacrophage cells were washed away with DPBS. The remaining macrophages were exposed immediately to serial dilutions of exemestane, sulforaphane or a combination of both compounds in the presence of 100 ng/ml LPS, and incubated for 24 hours before measurement of iNOS.
(§6) RAW264.7 cells (20,000 per well) in 96-well plates, were grown for 24 hours, and exposed to serial dilutions of exemestane in the presence of 10 ng/ml LPS. After 48-hour incubation, nitrite concentration in culture supernatant fractions of RAW264.7 cells or mouse peritoneal macrophages, measured as an indicator of iNOS induction, was determined by the Griess reaction (Cancer Res 58: 717-723 (1998), Proc Natl Acad Sci USA 105: 15926-15931 (2008)). The nitrite values of cells treated with LPS but without test compounds were used as controls.

iNOS [14] = assay: LPS-activated iNOS (NO production) in Nrf2-/- mouse peritoneal macrophages; type: cell-based; details: LPS 100 ng/ml, 24 hours
Method: as §5, §6

NF-κB = assay: LPS-induced NF-κB luciferase reporter in U937 3×κB-LUC cells; type: cell-based, human; details: LPS 10 ng/ml; for effect on LPS-activated NF-κB by itself: 6 hours, exemestane up to 30 μM; for effect on the inhibitory effect of sulforaphane on NF-κB activation: combined with sulforaphane
Method: Human monocytic U937-3×κB-LUC cells were transferred to medium with 2% heat-inactivated FBS in 24-well plates (1×10^6 cells/well) and incubated overnight. Then cells were incubated with exemestane, sulforaphane, combination of both compounds, or vehicle control for 30 minutes, and exposed to LPS (10 ng/ml). After an additional 6-hour incubation, cells were harvested and NF-κB-driven luciferase activity was assayed according to the manufacturer's instructions (Promega, Madison, Wis.). Luciferase activity was normalized to total protein concentration to compensate for possible cell toxicity of the compounds.

breast cancer = details: 4560 women at moderately increased risk for developing breast cancer; cited from earlier work
Hepa1c1c7 cells = assay: Cytotoxicity in Hepa1c1c7 cells; type: cell-based, murine; details: 20 μM

Structure (SMILES)	CD value (concentration required to double the specific activity of NQO1) (NQO1 [1])	CD value (concentration required to double the specific activity of NQO1) (NQO1 [2])	CD value (concentration required to double the specific activity of NQO1) (NQO1 [3])	CD value (concentration required to double the specific activity of NQO1) (NQO1 [4])	NQO1 activity (NQO1 [10])	NQO1 activity (NQO1 [11])	IC50 (iNOS [12])	toxicity (RAW264.7 cells)	IC50 (iNOS [13])	effect on LPS-activated NF-κB by itself (NF-κB)	effect on the inhibitory effect of sulforaphane on NF-κB activation (NF-κB)	inducer activity for NQO1 (NQO1 [1])	inhibition of LPS-stimulated NO production (iNOS [12])	other results
C=C1C[C@@H]2[C@H](CC[C@]3(C)C(=O)CC[C@@H]23)[C@@]2(C)C=CC(=O)C=C12 [Exemestane, 6-methyleneandrosta-1,4-diene-3,17-dione]	0.65 µM	0.65 µM	2.2 µM	2.9 µM	dose-dependently induced NQO1 activity	not affected	2500 nM	no toxicity	24.2 µM	no effect	dramatically enhanced	–	–	cytotoxicity [5]: no cytotoxicity; increase in mRNA levels of HO-1 over control cells (heme oxygenase-1 (HO-1)): greater than 8 fold; increase in NQO1 mRNA expression over control cells (NQO1 [6]): 3 fold; elevation of NQO1 activity in homogenates of skin (NQO1 [7]; 0.5 μmol/cm^2 per application): 1.3 fold; elevation of NQO1 activity in homogenates of skin (NQO1 [7]; 1.0 μmol/cm^2 per application): 1.7 fold; ROS production stimulated by tert-butyl hydroperoxide (ARPE-19 cells [8]): suppressed ROS production; protection against cytotoxicity of tert-butyl hydroperoxide (ARPE-19 cells [9]; oxidant 0.2, 0.4, 0.8 mM for 4 hours): protected against cytotoxicity; protection against cytotoxicity of 4-hydroxynonenal (ARPE-19 cells [9]; oxidant 10, 20, 40 μM for 4 hours): protected against cytotoxicity; ROS in UVA-irradiated cells (308 keratinocytes): dose-dependently led to the reduction of ROS; cell viability after hypoxia/reoxygenation (H9c2 cells): almost totally restored cell viability; tert-butyl hydroperoxide-stimulated ROS levels (WT MEF cells): clearly suppressed; protection against tert-butyl hydroperoxide-stimulated ROS (Nrf2-/- MEF cells): no protection; inhibition of LPS-stimulated NO production in Nrf2-/- compared with WT macrophages (iNOS [14]): much less effective inhibitor; reduction of the risk of breast cancer relative to placebo (breast cancer): 65%
N#Cc1ccc(C(c2ccc(C#N)cc2)n2cncn2)cc1 [letrozole]	–	–	–	–	–	–	–	no toxicity	–	no effect	did not enhance	no inducer activity	did not inhibit	–
C[S+]([O-])CCCCN=C=S (stereo not drawn) [sulforaphane, R,S-sulforaphane]	0.2 µM	0.2 µM	0.7 µM	0.9 µM	dose-dependently induced NQO1 activity	not affected	500 nM	–	1.5 µM	–	–	–	–	–
CC/C(=C(\c1ccccc1)c1ccc(OCCN(C)C)cc1)c1ccccc1 [tamoxifen]	–	–	–	–	–	–	–	–	–	–	–	did not induce NQO1 activity	did not inhibit	cytotoxicity (Hepa1c1c7 cells): about 90%; cytotoxicity (RAW264.7 cells): 50%
